Experimental findings from the NIST ThermoML archive (doi:10.1021/acs.jced.6b00862) are described below.

Numbers after ± are expanded uncertainties.

This data set is described as follows: wn = mass fraction of the nth substance listed. Conditions: 298 K, 100 kPa, Liquid, Alternating current cell with electrodes.

In the case of `OCCNCCO` [diethanolamine] + O, the electrical conductivity (w1 = 0.0105) is 0.0194 ± 0.00039 S/m; the electrical conductivity (w1 = 0.021) came to 0.0262 ± 0.00052 S/m; the electrical conductivity (w1 = 0.0315) amounted to 0.0318 ± 0.00064 S/m; the electrical conductivity (w1 = 0.0419) came out at 0.0346 ± 0.00069 S/m; the electrical conductivity (w1 = 0.0523) was determined as 0.0373 ± 0.00075 S/m.
